Data reported in patent US7897568B2, “Compositions for treatment of cancer” (priority 2006, dated 2011).
Where a SMILES comes first, the peptide text is derived from it. Where no end group is shown, it is not given here.

Tests used:
[1] = molecular target: SNCG (Homo sapiens, UniProt O76070); experiment: Far-UV circular dichroism of SNCG titrated with ANK peptide, calculated secondary structure; design: The SNCG coding region was amplified from the human cDNA clone; GST (N, cleaved yes); made in house; host or cells: Escherichia coli BL21 (DE3)
Procedure: FIGS. 1B and 1C provide far-UV circular dichroism (CD) spectra of SNCG (10 μM) with titration of ANK peptide […] (SEQ ID NO:1) at concentrations of 2 μM, 12 μM and 24 μM (FIG. 1B) and 25 μM, 50 μM and 100 μM (FIG. 1C). […] Spectra patterns correspond to random coil structures.
Titration of SNCG with the ANK peptide also gave rise to far-UV spectra characteristic of an unfolded protein (FIG. 1B) and produced no significant changes in calculated secondary structure.
The SNCG-ANK interaction was monitored using far-UV CD recorded on a rapid-scanning monochromator fitted with a CD module (RSM 1000, Olis Inc., Bogart Ga.). Samples containing 0.145 mg/ml SNCG were dialyzed into 5 mM sodium phosphate buffer, pH 7.0 for data acquisition. Spectra were averaged from 12 scans recorded at 25° C. The baseline was corrected by subtracting the spectra measured under identical conditions for the remaining buffer after dialysis. Peptide was reconstituted into flow-through buffer after dialysis and used for titration. Molar ellipticity [θ] was calculated according to the formula [θ]=[θ]×100/(nlc), where n represents the number of amino acids in the protein, l represents the path length of the cuvette in centimeters and c represents the concentration in millimolar. Percentage secondary structure was calculated using the web-based program CDNN (Bohm et al. Protein Eng. 1992 5:191-195).

[2] = system: MCF7-SNCG and T47D cells; experiment: Mitotic index by anti-phospho-H3 immunostaining (microscopy) after paclitaxel; type: cell-based; settings: over-expressing EGFP-ANK in MCF7-SNCG and T47D cells
Procedure: FIG. 7A through D show expression of EGFP-ANK disrupting the SNCG-mediated inhibition of mitotic checkpoint function as measured by microscopy and flow cytometry. The bar graphs show the expression of EGFP-ANK disrupting the SNCG-mediated inhibition of mitotic checkpoint function, using (FIG. 7A) DAPI and (FIG. 7B) anti-phospho-H^3 staining. For graphs of FIGS. 7A and 7B, the cells treated with 0.5 μM paclitaxel for 18 hours or untreated control cells were fixed with 4% paraformaldehyde for 20 minutes at room temperature. In both cases, the cells were then stained with 1 μg/ml of DAPI or 2 μg/ml anti-phospho-H3 primary and Texas Red goat anti-rabbit secondary antibodies (Invitrogen). Green fluorescent cells were identified for positive transfected cells. For each sample, 200-300 cells randomly chosen from 5 different views under a Nikon fluorescent microscope were scored for interphase, mitotic, or apoptotic based upon nuclei morphology. The data shown were derived from three separate transfections (p<0.01). […]
Two days after transfection, cells were exposed to paclitaxel for 18 hours and numbers of mitotic arrested and apoptotic cells were counted after DAPI staining. […] These cells were also probed with rabbit polyclonal anti-phospho-H^3 and the mitotic index was calculated according to the proportion of the number of H^3 stained EGFP positive cells to total EGFP positive cells (FIG. 7B). […]

SNCG, sequence (O76070 whole entry): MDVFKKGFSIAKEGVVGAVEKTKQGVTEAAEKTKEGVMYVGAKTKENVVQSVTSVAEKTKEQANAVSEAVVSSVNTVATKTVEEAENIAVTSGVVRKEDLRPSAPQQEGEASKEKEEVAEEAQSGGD

| Compound | Structure (%) Antiparallel ([1]; SNCG + 2.0 μM ANK Peptide) | Structure (%) Beta-Turn ([1]; SNCG + 2.0 μM ANK Peptide) | Structure (%) Helix ([1]; SNCG + 2.0 μM ANK Peptide) | Structure (%) Parallel ([1]; SNCG + 2.0 μM ANK Peptide) | Structure (%) Random Coil ([1]; SNCG + 2.0 μM ANK Peptide) | Structure (%) Antiparallel ([1]; SNCG + 12 μM ANK Peptide) | Structure (%) Beta-Turn ([1]; SNCG + 12 μM ANK Peptide) | Structure (%) Helix ([1]; SNCG + 12 μM ANK Peptide) | Structure (%) Parallel ([1]; SNCG + 12 μM ANK Peptide) | Structure (%) Random Coil ([1]; SNCG + 12 μM ANK Peptide) | Structure (%) Antiparallel ([1]; SNCG + 24 μM ANK Peptide) | Structure (%) Beta-Turn ([1]; SNCG + 24 μM ANK Peptide) | Structure (%) Helix ([1]; SNCG + 24 μM ANK Peptide) | Structure (%) Parallel ([1]; SNCG + 24 μM ANK Peptide) | Structure (%) Random Coil ([1]; SNCG + 24 μM ANK Peptide) | sensitivity to paclitaxel by anti-phospho-H3 mitotic index [2] |
| --- | --- | --- | --- | --- | --- | --- | --- | --- | --- | --- | --- | --- | --- | --- | --- | --- |
| CC[C@H](C)[C@H](NC(=O)[C@H](CS)NC(=O)CNC(=O)[C@H](CC(C)C)NC(=O)[C@H](Cc1c[nH]cn1)NC(=O)CNC(=O)[C@H](Cc1c[nH]cn1)NC(=O)[C@H](CCC(N)=O)NC(=O)[C@H](CO)NC(=O)[C@H](C)NC(=O)[C@@H](NC(=O)[C@H](Cc1c[nH]cn1)NC(=O)[C@H](CC(C)C)NC(=O)[C@H](C)NC(=O)[C@H](CO)NC(=O)[C@H](CC(N)=O)NC(=O)CNC(=O)[C@H](CCCCN)NC(C)=O)C(C)C)C(=O)N[C@@H](CCC(N)=O)C(=O)N[C@H](C(=O)N[C@@H](CC(C)C)C(=O)N[C@H](C(=O)N[C@@H](CCCNC(=N)N)C(=O)N[C@@H](Cc1ccc(O)cc1)C(=O)NCC(=O)N[C@@H](C)C(=O)N[C@@H](CC(N)=O)C(=O)N[C@H](C(=O)N[C@H](C(=O)N[C@@H](CCSC)C(=O)N[C@@H](CCC(N)=O)C(=O)N[C@@H](CC(N)=O)C(=O)N[C@@H](Cc1c[nH]cn1)C(=O)NCC(N)=O)[C@@H](C)O)C(C)C)C(C)C)[C@@H](C)O [ANK peptide] (Ac-KGNSALHVASQHGHLGCIQTLVRYGANVTMQNHG-NH2) | 9.00% | 17.6% | 29.2% | 10.3% | 36.0% | 8.80% | 17.4% | 30.0% | 10.0% | 35.4% | 8.70% | 17.3% | 30.4% | 9.90% | 35.0% | – |
| EGFP-ANK: ANK peptide expressed as a fusion protein with its amino-terminal linked to EGFP protein, approximately 37 kDa ({EGFP}-KGNSALHVASQHGHLGCIQTLVRYGANVTMQNHG) | – | – | – | – | – | – | – | – | – | – | – | – | – | – | – | increases in sensitivity to paclitaxel |
